From paper PMC11951083, “Highly Specific Miniaturized Fluorescent Monoacylglycerol Lipase Probes Enable Translational Research” (Journal of the American Chemical Society, 2025)

Key:
D2S (h) = D2S (h) (Homo sapiens, UniProt P14416); test: D2S (h) (agonist radioligand); conditions: read-out: Inhibition D2S (h) (agonist radioligand)
M2 (h) = biological target: T1, M2 (h) (Homo sapiens, UniProt P08172); test: M2 (h) (antagonist radioligand); conditions: read-out: Inhibition M2 (h) (antagonist radioligand)
T1 sequence (P08172 1-466): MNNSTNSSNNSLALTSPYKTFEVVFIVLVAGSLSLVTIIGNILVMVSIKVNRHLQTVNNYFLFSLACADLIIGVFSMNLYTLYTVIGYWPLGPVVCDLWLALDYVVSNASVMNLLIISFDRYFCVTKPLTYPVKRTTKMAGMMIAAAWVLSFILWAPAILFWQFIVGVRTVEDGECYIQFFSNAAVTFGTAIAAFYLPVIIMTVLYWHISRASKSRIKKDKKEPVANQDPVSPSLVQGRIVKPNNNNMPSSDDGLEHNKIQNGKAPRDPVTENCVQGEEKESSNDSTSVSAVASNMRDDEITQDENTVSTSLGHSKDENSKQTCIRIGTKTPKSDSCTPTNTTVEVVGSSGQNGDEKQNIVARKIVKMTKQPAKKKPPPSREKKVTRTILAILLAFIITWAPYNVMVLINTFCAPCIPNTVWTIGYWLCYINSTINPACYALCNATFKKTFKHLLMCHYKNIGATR

D1 (h) = D1 (h) (Homo sapiens, UniProt P21728); test: D1 (h) (antagonist radioligand); conditions: read-out: Inhibition D1 (h) (antagonist radioligand)
Chain of D1 (h) (P21728 whole entry): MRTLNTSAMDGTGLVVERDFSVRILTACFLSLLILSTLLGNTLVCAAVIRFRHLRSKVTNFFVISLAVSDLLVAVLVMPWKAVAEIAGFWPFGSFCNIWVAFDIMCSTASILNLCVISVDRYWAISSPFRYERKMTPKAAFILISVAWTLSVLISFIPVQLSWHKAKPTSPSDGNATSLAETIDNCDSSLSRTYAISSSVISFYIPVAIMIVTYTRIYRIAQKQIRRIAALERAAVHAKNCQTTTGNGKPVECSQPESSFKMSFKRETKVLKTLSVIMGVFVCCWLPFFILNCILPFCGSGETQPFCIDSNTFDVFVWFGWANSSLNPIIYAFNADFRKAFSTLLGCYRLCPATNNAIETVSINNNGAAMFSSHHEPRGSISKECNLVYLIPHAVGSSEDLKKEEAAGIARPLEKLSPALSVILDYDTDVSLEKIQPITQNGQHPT

5-HT1A (h) = biological target: T2, 5-HT1A (h) (Homo sapiens, UniProt P08908); test: 5-HT1A (h) (agonist radioligand); conditions: read-out: Inhibition 5-HT1A (h) (agonist radioligand)
T2 sequence (P08908 1-422): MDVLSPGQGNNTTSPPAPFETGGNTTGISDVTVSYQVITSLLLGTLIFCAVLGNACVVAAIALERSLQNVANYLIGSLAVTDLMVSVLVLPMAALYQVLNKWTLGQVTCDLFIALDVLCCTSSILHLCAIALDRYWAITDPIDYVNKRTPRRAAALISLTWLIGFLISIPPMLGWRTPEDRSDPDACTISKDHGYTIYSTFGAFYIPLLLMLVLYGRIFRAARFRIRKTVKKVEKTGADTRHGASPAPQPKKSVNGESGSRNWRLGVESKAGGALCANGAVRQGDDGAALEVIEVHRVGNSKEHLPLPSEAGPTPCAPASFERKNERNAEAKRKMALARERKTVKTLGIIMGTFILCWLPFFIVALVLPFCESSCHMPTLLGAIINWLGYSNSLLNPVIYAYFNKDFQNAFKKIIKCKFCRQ

alpha2A (h) = biological target: T3, alpha2A (h) (Homo sapiens, UniProt P08913); test: alpha2A (h) (antagonist radioligand); conditions: read-out: Inhibition alpha2A (h) (antagonist radioligand)
T3 sequence (P08913 1-465): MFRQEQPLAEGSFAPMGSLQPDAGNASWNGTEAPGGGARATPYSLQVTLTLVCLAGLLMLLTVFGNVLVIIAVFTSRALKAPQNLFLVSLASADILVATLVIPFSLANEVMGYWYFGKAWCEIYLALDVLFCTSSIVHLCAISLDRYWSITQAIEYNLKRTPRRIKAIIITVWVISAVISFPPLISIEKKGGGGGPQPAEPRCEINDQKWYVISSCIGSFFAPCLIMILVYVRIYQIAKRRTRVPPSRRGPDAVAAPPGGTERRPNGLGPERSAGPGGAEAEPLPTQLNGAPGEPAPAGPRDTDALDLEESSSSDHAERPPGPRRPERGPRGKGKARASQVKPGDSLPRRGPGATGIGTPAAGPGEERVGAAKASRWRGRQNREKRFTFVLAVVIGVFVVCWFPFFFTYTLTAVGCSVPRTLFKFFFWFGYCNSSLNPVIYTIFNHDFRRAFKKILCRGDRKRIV

PDE4D2 (h) = PDE4D2 (h) (Homo sapiens, UniProt Q08499); test: PDE4D2 (h); conditions: read-out: Inhibition PDE4D2 (h)
Chain of PDE4D2 (h) (Q08499 303-809 limits assumed): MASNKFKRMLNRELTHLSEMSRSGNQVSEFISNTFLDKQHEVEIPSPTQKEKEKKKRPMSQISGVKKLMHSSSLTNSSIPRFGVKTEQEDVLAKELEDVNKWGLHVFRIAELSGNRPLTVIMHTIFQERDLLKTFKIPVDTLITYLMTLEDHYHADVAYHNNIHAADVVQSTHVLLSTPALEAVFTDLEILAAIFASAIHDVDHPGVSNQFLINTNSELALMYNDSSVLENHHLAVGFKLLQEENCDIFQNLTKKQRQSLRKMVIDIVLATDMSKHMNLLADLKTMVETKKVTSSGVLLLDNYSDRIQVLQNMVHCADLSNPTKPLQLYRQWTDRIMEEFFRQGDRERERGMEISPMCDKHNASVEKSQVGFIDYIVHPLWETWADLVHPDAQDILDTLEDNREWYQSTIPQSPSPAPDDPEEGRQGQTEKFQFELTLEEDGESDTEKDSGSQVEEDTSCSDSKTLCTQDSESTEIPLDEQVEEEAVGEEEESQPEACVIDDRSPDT

5-HT2A (h) = 5-HT2A (h) (Homo sapiens, UniProt P28223); test: 5-HT2A (h) (agonist radioligand); conditions: read-out: Inhibition 5-HT2A (h) (agonist radioligand)
Chain of 5-HT2A (h) (P28223 whole entry): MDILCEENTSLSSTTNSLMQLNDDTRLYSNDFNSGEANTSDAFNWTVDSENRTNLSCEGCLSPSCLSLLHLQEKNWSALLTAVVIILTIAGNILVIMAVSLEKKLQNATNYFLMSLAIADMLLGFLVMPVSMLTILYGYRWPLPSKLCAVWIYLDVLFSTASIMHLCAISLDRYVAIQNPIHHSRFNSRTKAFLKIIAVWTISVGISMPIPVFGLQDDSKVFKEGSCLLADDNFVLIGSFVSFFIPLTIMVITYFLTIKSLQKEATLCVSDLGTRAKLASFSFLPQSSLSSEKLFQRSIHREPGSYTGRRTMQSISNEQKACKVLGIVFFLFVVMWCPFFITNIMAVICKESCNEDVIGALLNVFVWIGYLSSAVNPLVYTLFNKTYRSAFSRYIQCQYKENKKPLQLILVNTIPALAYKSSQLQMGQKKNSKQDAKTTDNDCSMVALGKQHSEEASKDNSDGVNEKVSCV

PCP = PCP (antagonist radioligand); conditions: 10 µM
alpha1A (h) = biological target: T4, alpha1A (h) (Homo sapiens, UniProt P35348); test: alpha1A (h) (antagonist radioligand); conditions: read-out: Inhibition alpha1A (h) (antagonist radioligand)
T4 sequence (P35348 1-466): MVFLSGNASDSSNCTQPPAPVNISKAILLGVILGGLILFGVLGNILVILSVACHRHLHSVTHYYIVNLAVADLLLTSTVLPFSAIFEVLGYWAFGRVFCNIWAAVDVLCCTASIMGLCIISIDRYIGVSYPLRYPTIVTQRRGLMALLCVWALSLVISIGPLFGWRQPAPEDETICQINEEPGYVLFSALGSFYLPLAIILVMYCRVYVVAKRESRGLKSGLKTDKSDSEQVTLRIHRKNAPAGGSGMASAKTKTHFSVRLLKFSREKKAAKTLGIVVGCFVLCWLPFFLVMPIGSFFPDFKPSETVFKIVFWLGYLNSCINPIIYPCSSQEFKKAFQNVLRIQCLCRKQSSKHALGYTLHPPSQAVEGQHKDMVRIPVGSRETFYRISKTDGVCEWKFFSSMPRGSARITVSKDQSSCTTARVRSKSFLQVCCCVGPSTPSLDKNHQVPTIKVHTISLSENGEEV

Chain of D2S (h) (P14416 1-414 isoform P14416-2): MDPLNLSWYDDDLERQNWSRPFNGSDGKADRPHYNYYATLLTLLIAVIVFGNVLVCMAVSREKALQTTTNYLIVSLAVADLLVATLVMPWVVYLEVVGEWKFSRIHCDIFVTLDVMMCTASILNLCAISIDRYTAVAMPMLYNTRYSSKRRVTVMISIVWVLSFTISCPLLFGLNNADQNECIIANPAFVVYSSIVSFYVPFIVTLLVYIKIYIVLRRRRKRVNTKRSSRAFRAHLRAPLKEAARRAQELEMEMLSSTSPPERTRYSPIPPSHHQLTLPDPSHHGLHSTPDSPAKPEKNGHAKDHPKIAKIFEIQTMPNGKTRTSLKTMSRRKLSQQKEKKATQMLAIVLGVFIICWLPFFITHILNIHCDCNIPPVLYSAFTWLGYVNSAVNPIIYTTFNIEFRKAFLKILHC

SMILES | inhibition at 10 µM (D2S (h)) [%] | inhibition at 10 µM (M2 (h)) [%] | inhibition at 10 µM (D1 (h)) [%] | inhibition at 10 µM (5-HT1A (h)) [%] | inhibition at 10 µM (alpha2A (h)) [%] | inhibition at 10 µM (PDE4D2 (h)) [%] | inhibition at 10 µM (5-HT2A (h)) [%] | Inhibition PCP (antagonist radioligand) (PCP) | inhibition at 10 µM (alpha1A (h)) [%]
O=C(O[C@H](CO)C(F)(F)F)N1CC2(CC(CC3=C4C=CC=[N+]4[B-](F)(F)n4cccc43)C2)C1 [Compound 1] | 5.9 | 35.1 | 8.1 | 0 | 11.7 | 18 | -13.2 | 6,90% | 7.6
O=C(OC(C(F)(F)F)C(F)(F)F)N1CC2(CC(CC3=C4C=CC=[N+]4[B-](F)(F)n4cccc43)C2)C1 [Compound 2] | -4.1 | 22.2 | -1.2 | -29.4 | -2.2 | -0.6 | -36.2 | -5,50% | -4.6
O=C(OC(C(F)(F)F)C(F)(F)F)N1CC2(CC(CC3=C4C=CC(c5ccc[nH]5)=[N+]4[B-](F)(F)n4cccc43)C2)C1 [Compound 2a] | -2.6 | -13.1 | 6.1 | -5.5 | -0.9 | -10.8 | -6.8 | -18,80% | -3.4
O=C1CO[C@H]2CCN(C(=O)N3CC4(CC(CC5=C6C=CC(c7ccc[nH]7)=[N+]6[B-](F)(F)n6cccc65)C4)C3)C[C@H]2N1 [Compound 4a] | 3.3 | -4.9 | 7.5 | -2.4 | 7.4 | 10.8 | 18.5 | 3,60% | 45.5
O=C(N1CC2(CC(CC3=C4C=CC=[N+]4[B-](F)(F)n4cccc43)C2)C1)N1CC2(CC(n3cnc(C4CC4)n3)C2)C1 [Compound 5] | 12.6 | 33.2 | 7.3 | 2.4 | -8.9 | 11.3 | -9.2 | -14,20% | 2.1
